The subject of data set [1] is human immunodeficiency virus. Nature of the data set: XTT anti-HIV assay in CEM-SS cells (strain not stated). Type of data set: cell-based. To be noted: Human immunodeficiency virus 1, anti-HIV activity, read-out: IC₅₀. In general terms: Tetrazolium assays rely on reduction of a dye to a coloured formazan, in cell work by metabolically active cells.
For data set [2], the system named is CEM-SS cells.
Description: (§2) The antiviral effect is expressed as the inhibitory concentration of a compound which reduces the number of viruses of the infected culture to 50% of that of the drug - untreated, control culture (IC₅₀). The cytotoxicity is expressed as the concentration of a compound which yields 50% of the number of viable cells of the untreated control cultures (IC₅₀). In this assay, 2',3'-Dideoxyinosine (ddI, Videx®) was also tested for anti-HIV activity.
Data set [3] concerns herpes simplex virus type 1 (HSV-1) using the KOS strain. The experiment in a line: Anti-HSV assay, inhibition of virus-induced cytopathic effect in Vero cells. It counts as cell-based. To be noted: HSV-1 KOS, 72 hours at 37°C. Here is the method:
(§1) The in vitro antiviral activity of BU-4724V was assessed against the herpes simplex virus type 1 (HSV-1) using the KOS strain. The assay was done according to the reported protocol of C. McLaren et al. in Antiviral Research, 3, 223-234, (1986) with minor modification. Briefly, 50 µl of Eagle's MEM medium containing BU-4724V and then 200 µl of the Vero cell suspension (2 X 10⁴ cells/200 µl) were added to a well of a 96-well microtiter plate. To the well, 50µl of medium containing approximately 30 times of the 50% tissue culture infectious dose (50% TCID) of virus was added. In a parallel experiment, the same set of cells without virus infection was prepared, which was for the determination of cytotoxicity of the sample. After 72 hours incubation at 37°C, the inhibition degree of virus-induced cytopathic effect and cytotoxicity by the sample were determined, respectively. The ID₅₀ is expressed as the concentration of a compound showing 50% growth inhibition of the cytopathic effect and the TD₅₀ as the concentration of a compound showing 50% growth inhibition of the cells in the absence of virus. Acyclovir was used as the reference compound for anti-HSV activity in the assay.

The next data set deals with Vero cell. The experiment in a line: Cytotoxicity in Vero cells without virus infection. Type of data set: cell-based. As to conditions: Vero cells in the absence of virus, 72 hours at 37°C. Here is the method: as §1
A further data set deals with HIV-1 RF. Nature of the data set: XTT anti-HIV assay in CEM-SS cells. Type of data set: cell-based, human immunodeficiency virus. To be noted: HIV-1 RF strain, read-out: IC₅₀.
A further data set concerns HIV-1 IIIb. Nature of the data set: XTT anti-HIV assay in CEM-SS cells. Type of data set: cell-based, human immunodeficiency virus. As to conditions: HIV-1 IIIb strain, read-out: IC₅₀.
A further data set concerns HIV-2 CBL-20. The experiment in a line: XTT anti-HIV assay in CEM-SS cells. Type of data set: cell-based, human immunodeficiency virus. As to conditions: HIV-2 CBL-20 strain, read-out: IC₅₀.
Data set [4] can be described thus: Cytotoxicity in CEM-SS cells (XTT assay). It counts as cell-based. As to conditions: human, 50% of viable cells of untreated control, read-out: cytotoxicity IC₅₀.
Description: as §2
For data set [5], the system named is CEM-SS cells. The experiment in a line: Cytotoxicity in CEM-SS cells (XTT assay). Type of data set: cell-based. To be noted: result in words.
Description: as §2
For a further data set, the system named is S. typhi 901. It counts as cell-based. To be noted: 901, 18 h, pH 7.

Where two headings read alike, the source gives them in different places. Positions of bridges follow the written chain, without caps; N, C: chain ends. Residues, ends and D or L forms follow the SMILES beside them.

Description for HIV-1 IIIb: as §2
Description for HIV-1 RF: as §2
Excerpt for HIV-2 CBL-20: The CEM-SS cells were obtained from Peter Nara, AIDS Research and Reference Program, Division of AIDS, NIAID, NIH.
as §2

Turning to `O=c1[nH]cnc2c1ncn2[C@H]1CC[C@@H](CO)O1` [ddI, 2',3'-Dideoxyinosine], the IC50 in data set [1] lay within 1 to 2 µM. Moreover, in the data set with CEM-SS cells [2], the cytotoxicity entry was “very weak cytotoxicity”.
`CC[C@H](C)[C@@H]1NC(=O)[C@H](C)NC(=O)[C@H](Cc2ccc(O)cc2)NC(=O)CNC(=O)[C@@H]2CSSC[C@@H]3NC(=O)C[C@H](NC(=O)[C@H](CC(N)=O)NC(=O)[C@H](CSSC[C@@H](C(=O)N[C@@H](Cc4ccccc4)C(=O)N[C@@H](Cc4c[nH]c5ccccc45)C(=O)O)NC(=O)[C@H](C(C)C)NC1=O)NC(=O)[C@H](CO)NC(=O)CNC(=O)[C@H](C(C)C)NC(=O)CNC(=O)[C@H](CC(C)C)NC3=O)C(=O)N[C@@H](Cc1ccccc1)C(=O)N[C@@H](C)C(=O)NCC(=O)N2` [BU-4724V] (CLGVGSCNDFAGCGYAIVCFW-OH; disulfide 1-13, 7-19; lactam N-9; C-terminus assumed) displayed an ID₅₀ in data set [3] of 48 µg/mL. This molecule gave a TD₅₀ with Vero cell of over 100 µg/mL. In addition, the IC50 in the data set on HIV-1 RF was 0.09 to 0.6 µM; in the data set with HIV-1 IIIb it was 0.46 µM; in the data set on HIV-2 CBL-20 it was 0.23 µM. Also, the CC50 in data set [4] is about 150 µM. Also, the cytotoxicity result in the data set on CEM-SS cells [5] is listed as “very weak cytotoxicity”. Moreover, the minimum inhibitory concentration (MIC) against S. typhi 901 is over 100 µg/mL. Also, the solubility result is “slightly soluble” (in alkaline water); “soluble” (in dimethyl sulfoxide, dimethylformamide, methanol and ethanol); “insoluble” (in water, ethyl acetate, chloroform, benzene, n-hexane and petroleum ether).
`Nc1nc2c(ncn2COCCO)c(=O)[nH]1` [Acyclovir] registered an ID₅₀ in data set [3] of 0.28 µg/mL. In addition, in the data set on Vero cell, the TD₅₀ is over 100 µg/mL.

A word on the MIC: it is the lowest concentration that inhibits growth of the organism. Low readings indicate greater potency, high ones weaker potency.
